Literature values in patent US10874875B2, “Irradiation device” (Photocure ASA, priority 2009, dated 2020).

Tested on: CIN2 or CIN3 or a persistent CIN1
Conditions: 24 patients; local application in a thermogel formulation; illumination 17 minutes after 3-5 hours, laser 100 J/cm^2; second PDT offered for incomplete response; scored at 6 months after the first treatment

## CCCCCCOC(=O)CCC(=O)CN [5-ALA hexylester, 5-ALA hexyl ester]
  complete response rate: 63%
